The term EC50 denotes the concentration that produces a half-maximal response. Low readings indicate greater potency, high ones weaker potency.

The experiment relates to HCV replication. Description: Replicon Assay (Huh-lucubineo-ET cells, luciferase readout). The format is cell-based. The conditions noted are these: Hepatitis C virus; ET (Huh-lucubineo-ET) HCV replicon cell line; luciferase activity 48-72 hours after compound addition; 6 dilutions. The method, then: A cell line, ET (Huh-lucubineo-ET) was used for screening of compounds of the present invention for inhibition of HCV replication. The ET cell line was stably transfected with RNA transcripts harboring a I389luc-ubi-neo/NS3-3′/ET; replicon with firefly luciferase-ubiquitin-neomycin phosphotransferase fusion protein and EMCV-IRES driven NS3-5B polyprotein containing the cell culture adaptive mutations (E1202G; T1280I; K1846T) (Krieger at al, 2001 and unpublished). The ET cells were grown in DMEM, supplemented with 10% fetal calf serum, 2 mM Glutamine, Penicillin (100 IU/mL)/Streptomycin (100 μg/mL), 1× nonessential amino acids, and 250 μg/mL G418 (“Geneticin”). They were all available through Life Technologies (Bethesda, Md.). The cells were plated at 0.5−1.0×10^4 cells/well in the 96 well plates and incubated for 24 hrs before adding the test compounds. The compounds were then added to the cells to achieve a final concentration of 5 or 50 μM. Luciferase activity was measured 48-72 hours later by adding a lysis buffer and the substrate (Catalog number Glo-lysis buffer E2661 and Bright-Glo luciferase system E2620 Promega, Madison, Wis.). Cells should not be too confluent during the assay. Percent inhibition of replication was plotted relative to no compound control. For EC50 (effective concentration at which 50% of the maximum inhibition is observed) determinations, 6 dilutions of each compound were used. Compounds were typically diluted 3 fold to span a concentration range of 250 fold. EC50 and similarly TC50 values were calculated by fitting % inhibition at each concentration to the following equation:
% inhibition=100%/[(EC50/[I])^b+1]
where b is Hill's coefficient.
In general terms: A replicon is a self-replicating genome or part of one, used to study replication in cells.
On to `CCCc1ccc(-c2ccc(Cn3cc4nc(-c5cccc(F)c5F)nc-4cn3)nn2)cc1` [Compound 220, 2-(2,3-Difluoro-phenyl)-5-[6-(4-propyl-phenyl)-pyridazin-3-ylmethyl]-5H-imidazo[4,5-d]pyridazine], for which it took 520 nM to reach a half-maximal effect (EC50).
Regarding `Cc1cccc(-c2ccc(Cn3cc4nc(-c5cccc(F)c5F)nc-4cn3)nn2)c1` [Compound 221, 2-(2,3-Difluoro-phenyl)-5-(6-m-tolyl-pyridazin-3-ylmethyl)-5H-imidazo[4,5-d]pyridazine], the EC50 was at least 50000 nM.
With `Fc1cccc(-c2ccc(Cn3cc4nc(-c5cccc(F)c5F)nc-4cn3)nn2)c1` [Compound 222, 2-(2,3-Difluoro-phenyl)-5-[6-(3-fluoro-phenyl)-pyridazin-3-ylmethyl]-5H-imidazo[4,5-d]pyridazine] the figure was at least 50000 nM; with `CCCCOc1ccc(-c2ccc(Cn3cc4nc(-c5cccc(F)c5F)nc-4cn3)nn2)cc1` [Compound 223, 5-[6-(4-Butoxy-phenyl)-pyridazin-3-ylmethyl]-2-(2,3-difluoro-phenyl)-5H-imidazo[4,5-d]pyridazine], 49000 nM; with `COc1ccc(-c2ccc(Cn3cc4nc(-c5cccc(F)c5F)nc-4cn3)c(C)n2)c(C(F)(F)F)c1` [Compound 224, 2-(2,3-Difluoro-phenyl)-5-[6-(4-methoxy-2-trifluoromethyl-phenyl)-2-methyl-pyridin-3-ylmethyl]-5H-imidazo[4,5-d]pyridazine], 281 nM.
On to `Fc1cccc(-c2nc3cnn(Cc4ccc(-c5ccc(C(F)(F)F)cc5)cc4)cc-3n2)c1F` [Compound 225, 2-(2,3-Difluoro-phenyl)-5-(4′-trifluoromethyl-biphenyl-4-ylmethyl)-5H-imidazo[4,5-d]pyridazine], for which the EC50 is 13700 nM.
The compound `CCCOc1ccc(-c2ccc(Cn3cc4nc(-c5cccc(F)c5F)nc-4cn3)nn2)c(C(F)(F)F)c1` [Compound 226, 2-(2,3-Difluoro-phenyl)-5-[6-(4-propoxy-2-trifluoromethyl-phenyl)-pyridazin-3-ylmethyl]-5H-imidazo[4,5-d]pyridazine] gave an EC50 of 4 nM.
For the compound `Cc1ccc(-c2ccc(Cn3cc4nc(-c5cccc(F)c5F)nc-4cn3)nn2)c(Cl)c1` [Compound 227, 5-[6-(2-Chloro-4-methyl-phenyl)-pyridazin-3-ylmethyl]-2-(2,3-difluoro-phenyl)-5H-imidazo[4,5-d]pyridazine], the response was half-maximal at 97 nM (EC50).
`COc1ccc(-c2ccc(Cn3cc4nc(-c5cccc(F)c5F)nc-4cn3)nn2)c(Cl)c1` [Compound 228, 5-[6-(2-Chloro-4-methoxy-phenyl)-pyridazin-3-ylmethyl]-2-(2,3-difluoro-phenyl)-5H-imidazo[4,5-d]pyridazine]: the EC50 was 112 nM.
With `Fc1cccc(-c2nc3cnn(Cc4ccc(-c5ccc(OC(F)(F)F)cc5)cc4)cc-3n2)c1F` [Compound 229, 2-(2,3-Difluoro-phenyl)-5-(4′-trifluoromethoxy-biphenyl-4-ylmethyl)-5H-imidazo[4,5-d]pyridazine] the figure was 8380 nM; with `Fc1cc(C(F)(F)F)ccc1-c1ccc(Cn2cc3nc(-c4cccc(F)c4F)nc-3cn2)cc1` [Compound 230, 2-(2,3-Difluoro-phenyl)-5-(2′-fluoro-4′-trifluoromethyl-biphenyl-4-ylmethyl)-5H-imidazo[4,5-d]pyridazine], 3140 nM; with `CC(F)(F)COc1ccc(-c2ccc(Cn3cc4nc(-c5cccc(F)c5F)nc-4cn3)nn2)c(C(F)(F)F)c1` [Compound 231, 2-(2,3-Difluoro-phenyl)-5-{6-[4-(2,2-difluoro-propoxy)-2-trifluoromethyl-phenyl]-pyridazin-3-ylmethyl}-5H-imidazo[4,5-d]pyridazine], 164 nM.
As to `CCCOc1ccc(-c2ccc(Cn3cc4nc(-c5cccc(F)c5F)nc-4cn3)c(N)n2)c(C(F)(F)F)c1` [Compound 232, 3-[2-(2,3-Difluoro-phenyl)-imidazo[4,5-d]pyridazin-5-ylmethyl]-6-(4-propoxy-2-trifluoromethyl-phenyl)-pyridin-2-ylamine], the EC50 worked out at 18 nM.

For the origin of these results see US20090226398A1, “ANTI-VIRAL COMPOUNDS, COMPOSITIONS, AND METHODS OF USE” (Genelabs Technologies, Inc., priority 2008, published 2009).
